Results taken from publication PMC7617456, “Cryptosporidium lysyl-tRNA synthetase inhibitors define the interplay between solubility and permeability required to achieve efficacy” (Science translational medicine, 2024).
Values after ≈ are worked out from the molar mass of the structure shown. Like-named read-outs stand apart in the source and are kept apart here.

Legend:
C. parvum = test: microbe, parasite or virus in culture; type: cell-based, Cryptosporidium parvum
[1] = Aqueous (kinetic) solubility by UHPLC; type: physicochemical; conditions: PBS pH 7.4, UHPLC
Procedure: As previously described.(27) […]
samples were prepared by adding 5 µL stock to PBS pH 7.4 (195 µL). This solution was mixed […]
The solubility test samples were […]
vacuum ﬁ ltered (Millipore Multiscreen HTS ﬁ lter, 96-well format) to remove any undissolved […]
material. The ﬁ ltrate was analyzed for dissolved drug compound using a truncated UHPLC […]
methodology. A calibration solution was prepared for each test compound. The 10 mM stock […]
solution was diluted in DMSO to give a 500 µM solution. This was further diluted with 50:50 […]
acetonitrile:water to give a 50 µM solution. Aliquots (0.2, 2.0, and 5.0 µL) of this 50 µM solution were injected onto the UHPLC system, and the areas of the resultant peaks were […]
integrated to produce a calibration line. Aliquots of the test sample ﬁ ltrate (0.4 and 5.0 µL) […]
were injected onto the UHPLC system and the resultant test compound peak areas quantiﬁ ed […]
using the calibration line. […]

PAMPA permeability = type: in vitro ADME; conditions: for Papp at 5 h, 10 µM: PAMPA, pH 7.4, pH 7.4; for PAMPA Papp: pH 7.4
Procedure: Solubility test samples were prepared by adding 5 μL stock to PBS pH 7.4 (195 μL). […] […] vacuum […] (Millipore Multiscreen HTS fi lter, 96-well format) to remove any undissolved material. The […] analyzed for dissolved drug compound using a truncated UHPLC methodology. A calibration solution was prepared for each test compound. […] Aliquots of the test sample […] (0.4 and 5.0 μL) were injected onto the UHPLC system and the resultant test compound peak areas quantifi ed […] PAMPA per meability As previously described.(28) The permeability assay was performed using a 96-well precoated BD Gentest PAMPA plate (BD Biosciences). Each well was divided into two chambers: donor and acceptor, separated by a lipid-oil-lipid trilayer constructed in a porous fi lter. […] Stock solutions (5 mM) of the compound were prepared in DMSO. […] The compound dissolved in phosphate buffered saline was added to the donor side of the membrane, and phosphate-buffered saline without the compound was added to the acceptor side. The PAMPA plate was left at room temperature for 5 h then an aliquot (100 μL) was removed from both acceptor and donor compartments and mixed with acetonitrile (80 μL) containing an internal standard: donepezil at 50 ng/mL. The samples were centrifuged (10 min, 5 °C, 3270×g) to sediment lipids and sealed prior to UPLC-MS/MS analysis using a Quattro Premier XE (Waters Corp, USA). Recovery of the compound from donor and acceptor wells was calculated, and data were only accepted when recovery exceeded 70%.

[2] = Biopharmaceutical Classification System (BCS) categorization; type: physicochemical; conditions: cut-offs solubility 100 μM, permeability 30 nm/s; Table S1 prints 1-4 for I-IV
From the text: To investigate our key parameters, solubility and permeability, we used the Biopharmaceutical Classification System (BCS)([13]) to categorize our tool compounds in a methodical way. […] Restricting either of these properties is likely to have a rate-determining effect on absorption (Class II, purple; Class III, teal). Using the BCS to prioritize compounds for in vivo studies allowed us to systematically examine these individual property combinations and determine whether modulating solubility or permeability influenced compound efficacy. Our hypothesis was that slow absorption due to suboptimal solubility or permeability (i.e. Class II or Class III) would maximize compound concentration at the biophase following a single oral dose.
(A) Schematic of Biopharmaceutical Classification System (BCS). (B) Aqueous solubility and Parallel Artificial Membrane Permeability Assay (PAMPA) measurements of tool compounds from each BCS class. Data are means of two technical replicates. Solubility and permeability cut-offs were defined at 100 μM and 30 nm/s respectively. Raw data reported for all tool compounds in Table S1. (C) NOD SCID Gamma mice were infected with wild type C. parvum. Vehicle, positive control, or tool compound was administered via oral gavage starting day 7 post infection (PI) for 7 days (gray box indicates treatment period). Fecal samples were collected on days indicated by arrows. Fecal samples were collected from individual mice (4 animals per treatment group) and analyzed by qPCR to quantify parasite shedding (oocysts/g). (D) Log reduction in oocyst shedding measured on day 14 PI vs day 21 PI for tool compounds (colored by BCS class) dosed orally at either 30 or 50 mg/kg twice a day (BID) for 7 days in NOD SCID Gamma mice. […] Mean oocyst shedding was determined for each group of n=4 mice, for all compounds tested. Log reduction in oocyst shedding was calculated as log (mean oocysts on day 7) – log (mean oocysts on day 14 or 21).

[3] = Cryptosporidium parvum, HCT-8, 48 h, read-out: C. parvum EC50, co-cultured with HCT-8 cells for 48 hrs
[4] = Cryptosporidium parvum, HCT-8, read-out: C. parvum EC90
[5] = 25 °C, aqueous buffer, kinetic from dmso stock
[6] = calculated from the average EC50 and hill slope, read-out: C. parvum EC90
[7] = co-cultured with HCT-8 cells for 48 hrs, read-out: C. parvum EC50

| Structure (SMILES) | EC50 (C. parvum; [3]) [nM] | EC90 (C. parvum; [4]) [nM] | solubility at 24 h [1, 5] [µM] | Papp at 5 h, 10 µM (PAMPA permeability) [×10⁻⁶ cm/s] | BCS Class [2] | EC90 (C. parvum; [6]) [nM] | EC50 (C. parvum; [7]) [nM] | solubility at 24 h [1] [µM] | PAMPA Papp (PAMPA permeability) [×10⁻⁶ cm/s] |
| --- | --- | --- | --- | --- | --- | --- | --- | --- | --- |
| Nc1cc(F)cc2c(=O)cc(C(=O)NCC3(O)CCCCC3)oc12 [DDD229] | 30 | 80 | 1.9 (≈ 0.635 µg/mL) | 1.9 | 4 | – | – | – | – |
| Nc1nc2c(c(C(F)F)n1)C(=O)N(C[C@@H]1CCC[C@H](C(F)(F)F)C1)C2 [DDD352] | – | – | – | – | 2 | 60 | 20 | 32 (≈ 11.7 µg/mL) | 19.3 |
| Cc1nc(N)nc2c1C(=O)N(C[C@@H]1CCC[C@H](C(F)(F)F)C1)C2 [DDD478] | – | – | – | – | 2 | 40 | 20 | 57 (≈ 18.7 µg/mL) | 13.8 |
| COc1cc(NS(=O)(=O)CCN2CCCC2)c2oc(C(=O)N[C@@H](C)C3CCCCC3)cc(=O)c2c1 [DDD582] | 150 | 370 | 225 (≈ 114 µg/mL) | 1.6 | 3 | – | – | – | – |
| COc1ccc2oc(C(=O)NCC3(O)CCCCC3)cc(=O)c2c1 [DDD583] | 140 | 330 | 33 (≈ 10.9 µg/mL) | 11.5 | 2 | – | – | – | – |
| O=C(NCC1CCCCC1)c1cc(=O)c2cc(F)c(F)c(O)c2o1 [DDD690] | 190 | 370 | 226 (≈ 76.2 µg/mL) | 3.2 | 1 | – | – | – | – |
| O=C(NCC1CCCCO1)c1cc(=O)c2ccc(F)c(O)c2o1 (stereo not shown) [DDD695] | 80 | 180 | 236 (≈ 75.8 µg/mL) | 1.1 | 3 | – | – | – | – |
| O=C(NCC1CCCCC1)c1cc(=O)c2ccc(F)c(O)c2o1 [DDD714] | 30 | 50 | 377 (≈ 120 µg/mL) | 4.3 | 1 | – | – | – | – |
| O=C(NCC1(O)CCCCC1)c1cc(=O)c2ccc(F)c(O)c2o1 [DDD844] | 170 | 460 | 63 (≈ 21.1 µg/mL) | 0.17 | 4 | – | – | – | – |
| Nc1nc2c(c(C(F)(F)F)n1)C(=O)N(CC1CCCC3(CC3)C1)C2 (stereo not shown) [DDD909] | – | – | – | – | 2 | 130 | 70 | 14 (≈ 4.76 µg/mL) | 17.4 |
| O=C(NCC1(F)CCCCC1)c1cc(=O)c2ccc(F)c(O)c2o1 [DDD993] | 100 | 150 | 234 (≈ 78.9 µg/mL) | 6.3 | 1 | – | – | – | – |
